# Assay results as given in US4851518A, “Di and tri-O-acetyl-"O-iso-valeryl-23-O-demycinosyl tylosins, hydrazone derivatives thereof and processes for their preparation” (priority 1985, dated 1989).
# Legend:
# [1] = Serum levels IV in mice (AUCs, 0-3h.), cylinder cup method; assay type: in vivo, male mice (Carworth CF-1); conditions: for AUC at 3 h: mouse, in vivo, intravenous single bolus 100 mg./kg.; for AUC at 3 h / serum levels compared with erythromycin, rosaramicin, tylosin, 3-O-acetyl-4"-O-iso-valeryltylosin, 3-O-acetyl-23-O-demycinosyl-4"-O-iso-valeryltylosin, intravenously to mice: 10 mg./ml. in vehicle; for serum levels compared with erythromycin, rosaramicin, tylosin, 3-O-acetyl-4"-O-iso-valeryltylosin, 3-O-acetyl-23-O-demycinosyl-4"-O-iso-valeryltylosin, intravenously to mice: 100 mg./kg.
# Protocol: (§1) The serum levels of the compounds of this invention were determined in male mice (Carworth CF-1) weighing 18-20 g. each, and squirrel monkeys weighing ca. 1 kg. each. Groups of six mice were given aqueous solutions of the drugs intravenously as single bolus doses of 100 mg./kg., and groups of six monkeys were given the drugs orally as a single dose of 20, or 50 mg./kg. After 1, 3, 5, 10, 20, 30, 45, 60, 90, 120 and 180 min., mice were killed by cutting the jugular vein and the blood allowed to drain into 8 mm. (diameter) tubes which had been standing in a ice water bath. At each time point, blood from the group of mice was pooled. For monkeys, blood samples were taken after 15, 30, 45, 60, 90, 120, 180, 240 and 360 minutes and were not pooled. The samples were left to clot at room temperature for 15 min. After clotting, the samples were centrifuged for 10 min. Serum was removed and put into another test tube in an ice water bath, until antibiotic levels were determined by a cylinder cup method, with either Bacillus subtilis ATCC 6633, or Micrococcus luteus ATCC 9431 as the test organisms. Stock solutions of each antibacterial were prepared daily in the appropriate vehicle and diluted in homologous serum to prepare a standard curve. Serum samples, diluted where necessary in the appropriate serum, were compared to a standard curve of known potency by standard assay procedures. All assays were done at least twice.
# (§2) AUCs (areas under the curves) were obtained from serum level vs. time data by the trapezoidal rule.
# [2] = Serum levels PO in squirrel monkeys (AUCs, 0-6h.), cylinder cup method; assay type: in vivo; conditions: for AUC at 6 h: monkey, po
# Protocol: as §1, with “Serum was removed and put into another test tube in an ice water bath, until antibiotic levels were determined by a cylinder cup method, with either Bacillus subtilis ATCC 6633, or Micrococcus luteus ATCC 9431 as the test organisms.” left out
# as §2
# [3] = cited from earlier work
# [4] = serum, 20 mg/kg, oral single dose 20 mg./kg., 20 mg./ml. in PEG 40 castor oil/lactic acid vehicle
# [5] = in vivo, 20 mg/kg, oral single dose 20 mg./kg., 20 mg./ml. in PEG 40 castor oil/lactic acid vehicle
# [6] = serum, 20 mg/kg, oral single dose 20 mg./kg., 3.5 mg./ml. in vehicle, crossover experiment
Structure (SMILES),AUC at 3 h [1],"AUC at 6 h [2, 4]",further results
"CC[C@H]1OC(=O)C[C@@H](OC(C)=O)[C@H](C)[C@@H](O[C@@H]2O[C@H](C)[C@@H](O[C@H]3C[C@@](C)(O)[C@@H](OC(=O)CC(C)C)[C@H](C)O3)[C@H](N(C)C)[C@H]2O)[C@@H](CC=NN2CCS(=O)(=O)CC2)C[C@@H](C)C(=O)/C=C/C(C)=C/[C@@H]1COC(C)=O [XI, 3,23-Di-O-acetyl-23-O-demycinosyl-20-deoxo-20-[(4,4-dioxothiomorpholinyl)imino]-4""-O-iso-valeryltylosin]",61800 ng·h/mL,4600 ng·h/mL,–
"CC[C@H]1OC(=O)[C@H](C)[C@@H](O[C@H]2C[C@@](C)(OC)[C@@H](O)[C@H](C)O2)[C@H](C)[C@@H](O[C@@H]2O[C@H](C)C[C@H](N(C)C)[C@H]2O)[C@](C)(O)C[C@@H](C)C(=O)[C@H](C)[C@@H](O)[C@]1(C)O [I, Erythromycin, reference compound]",36100 ng·h/mL,–,"AUC at 6 h ([2]; in vivo, 20 mg/kg, oral single dose 20 mg./kg., 3.5 mg./ml. in vehicle): 1500 ng·h/mL; AUC at 6 h ([2]; in vivo, 20 mg/kg, oral single dose 20 mg./kg., 10 mg./ml. in vehicle): 4800 ng·h/mL; AUC at 6 h [2, 5]: 4900 ng·h/mL"
"CC[C@H]1OC(=O)C[C@@H](OC(C)=O)[C@H](C)[C@@H](O[C@@H]2O[C@H](C)[C@@H](O[C@H]3C[C@@](C)(O)[C@@H](OC(=O)CC(C)C)[C@H](C)O3)[C@H](N(C)C)[C@H]2OC(C)=O)[C@@H](CC=NN2CCS(=O)(=O)CC2)C[C@@H](C)C(=O)/C=C/C(C)=C/[C@@H]1COC(C)=O [XII, 3,23,2'-Tri-O-acetyl-23-O-demycinosyl-20-deoxo-20-[(4,4-dioxothiomorpholinyl)imino]-4""-O-iso-valeryltylosin]",154000 ng·h/mL,–,"serum levels compared with erythromycin, rosaramicin, tylosin, 3-O-acetyl-4""-O-iso-valeryltylosin, 3-O-acetyl-23-O-demycinosyl-4""-O-iso-valeryltylosin, intravenously to mice [1]: serum levels that are superior; AUC at 6 h ([2]; serum, 20 mg/kg, oral single dose 20 mg./kg., 3.5 mg./ml. in vehicle): 3800 ng·h/mL"
"CC[C@H]1OC(=O)C[C@@H](OC(C)=O)[C@H](C)[C@@H](O[C@@H]2O[C@H](C)[C@@H](O[C@H]3C[C@@](C)(O)[C@@H](OC(=O)CC(C)C)[C@H](C)O3)[C@H](N(C)C)[C@H]2OC(C)=O)[C@@H](CC=O)C[C@@H](C)C(=O)/C=C/C(C)=C/[C@@H]1CO [VI, 3,2'-Di-O-acetyl-23-O-demycinosyl-4""-O-iso-valeryltylosin]",–,10400 ng·h/mL,"serum levels compared with 3-O-acetyl-4""-O-iso-valeryltylosin, orally to squirrel monkeys ([2]; 20 mg./kg., 20 mg./ml. in vehicle): slightly lower serum levels; serum levels compared with 3-O-acetyl-4""-O-iso-valeryltylosin, orally to squirrel monkeys ([2]; oral, dose not given): slightly lower serum levels"
"CC[C@H]1OC(=O)C[C@@H](OC(C)=O)[C@H](C)[C@@H](O[C@@H]2O[C@H](C)[C@@H](O[C@H]3C[C@@](C)(O)[C@@H](OC(=O)CC(C)C)[C@H](C)O3)[C@H](N(C)C)[C@H]2O)[C@@H](CC=NN2CCS(=O)(=O)CC2)C[C@@H](C)C(=O)/C=C/C(C)=C/[C@@H]1COC(=O)Cc1ccccc1 [XIII, 3-O-Acetyl-23-O-demycinosyl-20-deoxo-20-[(4,4-dioxothiomorpholinyl)imino]-23-O-phenylacetyl-4""-O-iso-valeryltylosin]",43400 ng·h/mL,–,–
"CC[C@H]1OC(=O)C[C@@H](OC(C)=O)[C@H](C)[C@@H](O[C@@H]2O[C@H](C)[C@@H](O[C@H]3C[C@@](C)(O)[C@@H](OC(=O)CC(C)C)[C@H](C)O3)[C@H](N(C)C)[C@H]2OC(C)=O)[C@@H](CC=O)C[C@@H](C)C(=O)/C=C/C(C)=C/[C@@H]1COC(C)=O [VII, 3,23,2'-Tri-O-acetyl-23-O-demycinosyl-4""-O-iso-valeryltylosin]",69400 ng·h/mL,–,"serum levels compared with erythromycin, rosaramicin, tylosin, 3-O-acetyl-4""-O-iso-valeryltylosin, 3-O-acetyl-23-O-demycinosyl-4""-O-iso-valeryltylosin, intravenously to mice [1]: serum levels that are superior; serum levels compared with erythromycin, rosaramicin, tylosin, 3-O-acetyl-23-O-demycinosyl-4""-O-iso-valeryltylosin, 3-O-acetyl-4""-O-iso-valeryltylosin, intravenously to mice ([1]; intravenous, dose not given): higher serum levels; serum levels compared with 3-O-acetyl-4""-O-iso-valeryltylosin, orally to squirrel monkeys ([2]; 20 mg./kg., 3.5 mg./ml. in vehicle): superior serum levels; AUC at 6 h [2, 6]: 13500 ng·h/mL; serum levels compared with 3-O-acetyl-4""-O-iso-valeryltylosin, orally to squirrel monkeys ([2]; oral, dose not given): superior serum levels"
"CC[C@H]1OC(=O)C[C@@H](O)[C@H](C)[C@@H](O[C@@H]2O[C@H](C)C[C@H](N(C)C)[C@H]2O)[C@@H](CC=O)C[C@@H](C)C(=O)/C=C/[C@]2(C)O[C@H]2[C@@H]1C [II, Rosaramicin, reference compound]",–,2200 ng·h/mL,"AUC at 6 h ([2]; serum, 50 mg/kg, oral single dose 50 mg./kg., 50 mg./ml. in vehicle): 6600 ng·h/mL"
"CC[C@H]1OC(=O)C[C@@H](O)[C@H](C)[C@@H](O[C@@H]2O[C@H](C)[C@@H](O[C@H]3C[C@@](C)(O)[C@@H](O)[C@H](C)O3)[C@H](N(C)C)[C@H]2O)[C@@H](CC=O)C[C@@H](C)C(=O)/C=C/C(C)=C/[C@@H]1CO[C@@H]1O[C@H](C)[C@@H](O)[C@@H](OC)[C@H]1OC [III, Tylosin]",24200 ng·h/mL,–,"stability in acidic and basic solution [3]: readily transformed in acidic and basic solution into aldol condensation and Michael addition products; AUC at 6 h [2, 5]: 2600 ng·h/mL; AUC at 6 h ([2]; in vivo, 50 mg/kg, oral single dose 50 mg./kg., 50 mg./ml. in vehicle): 15600 ng·h/mL"
"CC[C@H]1OC(=O)C[C@@H](OC(C)=O)[C@H](C)[C@@H](O[C@@H]2O[C@H](C)[C@@H](O[C@H]3C[C@@](C)(O)[C@@H](OC(=O)CC(C)C)[C@H](C)O3)[C@H](N(C)C)[C@H]2O)[C@@H](CC=NN2CCS(=O)(=O)CC2)C[C@@H](C)C(=O)/C=C/C(C)=C/[C@@H]1CO [IX, 3-O-Acetyl-23-O-demycinosyl-20-deoxo-20-[(4,4-dioxothiomorpholinyl)imino]-4""-O-iso-valeryltylosin]",40100 ng·h/mL,2500 ng·h/mL,–
"CC[C@H]1OC(=O)C[C@@H](OC(C)=O)[C@H](C)[C@@H](O[C@@H]2O[C@H](C)[C@@H](O[C@H]3C[C@@](C)(O)[C@@H](OC(=O)CC(C)C)[C@H](C)O3)[C@H](N(C)C)[C@H]2OC(C)=O)[C@@H](CC=NN2CCS(=O)(=O)CC2)C[C@@H](C)C(=O)/C=C/C(C)=C/[C@@H]1CO [X, 3,2'-Di-O-acetyl-23-O-demycinosyl-20deoxo-20-[(4,4-dioxothiomorpholinyl)imino]-4""-O-iso-valeryltylosin]",80500 ng·h/mL,4800 ng·h/mL,–
"CC[C@H]1OC(=O)C[C@@H](OC(C)=O)[C@H](C)[C@@H](O[C@@H]2O[C@H](C)[C@@H](O[C@H]3C[C@@](C)(O)[C@@H](OC(=O)CC(C)C)[C@H](C)O3)[C@H](N(C)C)[C@H]2O)[C@@H](CC=O)C[C@@H](C)C(=O)/C=C/C(C)=C/[C@@H]1CO [V, 3-O-Acetyl-23-O-demycinosyl-4""-O-isovaleryltylosin, reference compound]",28300 ng·h/mL,5500 ng·h/mL,–
"CC[C@H]1OC(=O)C[C@@H](OC(C)=O)[C@H](C)[C@@H](O[C@@H]2O[C@H](C)[C@@H](O[C@H]3C[C@@](C)(O)[C@@H](OC(=O)CC(C)C)[C@H](C)O3)[C@H](N(C)C)[C@H]2O)[C@@H](CC=O)C[C@@H](C)C(=O)/C=C/C(C)=C/[C@@H]1CO[C@@H]1O[C@H](C)[C@@H](O)[C@@H](OC)[C@H]1OC [IV, 3-O-Acetyl-4""-O-iso-valeryltylosin, reference compound]",52400 ng·h/mL,15800 ng·h/mL,"AUC at 6 h [2, 6]: 7600 ng·h/mL"
"CC[C@H]1OC(=O)C[C@@H](OC(C)=O)[C@H](C)[C@@H](O[C@@H]2O[C@H](C)[C@@H](O[C@H]3C[C@@](C)(O)[C@@H](OC(=O)CC(C)C)[C@H](C)O3)[C@H](N(C)C)[C@H]2O)[C@@H](CC=NN2CCS(=O)(=O)CC2)C[C@@H](C)C(=O)/C=C/C(C)=C/[C@@H]1CO[C@@H]1O[C@H](C)[C@@H](O)[C@@H](OC)[C@H]1OC [VIII, 3-O-Acetyl-20-deoxo-20-[(4,4-dioxothiomorpholinyl)imino]-4""-O-iso-valeryltylosin]",67600 ng·h/mL,7500 ng·h/mL,–
